Literature values as cited in patent publication EP2156182B1, “DETECTION OF AN ANALYTE IN A SAMPLE OF HEMOLYZED WHOLE BLOOD” (Roche Diagnostics GmbH, priority 2007, dated 2008).

Assays:
[1] = therapeutic range, whole blood drug monitoring
[2] = relative to cyclosporin

Compound	therapeutic trough concentration [1] [µg/L]	times more potent than cyclosporin in vitro [2]
CO[C@H]1C[C@@H]2CC[C@@H](C)[C@@](O)(O2)C(=O)C(=O)N2CCCC[C@H]2C(=O)O[C@H]([C@H](C)C[C@@H]2CC[C@@H](O)[C@H](OC)C2)CC(=O)[C@H](C)/C=C(\C)[C@@H](O)[C@@H](OC)C(=O)[C@H](C)C[C@H](C)/C=C/C=C/C=C/1C [sirolimus]	5 to 15	
C=CC[C@@H]1/C=C(\C)C[C@H](C)C[C@H](OC)[C@H]2O[C@@](O)(C(=O)C(=O)N3CCCC[C@H]3C(=O)O[C@H](/C(C)=C/[C@@H]3CC[C@@H](O)[C@H](OC)C3)[C@H](C)[C@@H](O)CC1=O)[C@H](C)C[C@@H]2OC [Tacrolimus, tacrolimus]	5 to 20	up to 100 times
